According to the supplement of paper PMC10307832:

Compound: CCN(CCO)CCCC(C)Nc1ccnc2cc(Cl)ccc12 [Hydroxychloroquine] + CS(=O)(=O)N1CCN(Cc2cc3nc(-c4cccc5[nH]ncc45)nc(N4CCOCC4)c3s2)CC1 [Pictilisib] (partner 1 µM)
Assay: relative viability (nuclei count vs DMSO), 5 days (fraction); higher = more cells survive
Procedure, shortened: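 Lung cancer cell lines in 1536-well plates were dosed by pin tool the day after seeding, either with one drug alone or with a fixed anchor-drug dose plus five library-drug doses (not always all listed) in √10 steps. After 5 days, cells were fixed and their nuclei stained in one step (final 0.05% Triton X-100, 1% formaldehyde, 1 ug/ml Hoechst), then counted on 4× images. Relative viability is the nuclei count in treated wells divided by that in vehicle wells. Values are medians of duplicate plates.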

Row | Cell Line | relative viability (first compound 0.5 µM) | relative viability (first compound 1.581 µM) | relative viability (first compound 15.81 µM) | relative viability (first compound 50 µM) | relative viability (first compound 5 µM)
1 | NCI-H650 | 0.867 | 0.758 | 1.01 | 0.827 | –
2 | NCI-H661 | 0.472 | 0.413 | 0.384 | 0.358 | 0.406
3 | NCI-H727 | 0.389 | 0.339 | 0.325 | 0.371 | 0.444
4 | NCI-H838 | 0.509 | 0.465 | 0.465 | 0.53 | 0.398
5 | NCI-H1299 | 0.805 | 0.682 | 0.845 | 0.746 | 0.867
6 | NCI-H1355 | 0.475 | 0.362 | 0.485 | 0.471 | 0.461
7 | NCI-H1395 | 0.605 | 0.836 | 0.564 | 0.569 | 0.627
8 | NCI-H1437 | 0.341 | 0.49 | 0.421 | 0.439 | 0.412
9 | NCI-H1563 | 0.694 | 0.605 | 0.627 | 0.596 | 0.574
10 | NCI-H1650 | 0.558 | 0.578 | 0.542 | 0.599 | 0.49
11 | NCI-H1651 | 0.6 | 0.663 | 0.574 | 0.592 | 0.561
12 | NCI-H1666 | 0.519 | 0.409 | 0.477 | 0.402 | 0.377
13 | NCI-H1703 | 0.272 | 0.241 | 0.263 | 0.216 | 0.224
14 | NCI-H1734 | 0.507 | 0.294 | 0.491 | 0.47 | 0.462
15 | NCI-H1755 | 0.431 | 0.273 | 0.425 | 0.379 | 0.374
16 | NCI-H1792 | 0.286 | 0.256 | 0.26 | 0.249 | 0.254
17 | NCI-H1793 | 0.349 | 0.308 | 0.307 | 0.364 | 0.415
18 | NCI-H1915 | 0.973 | 0.869 | 0.895 | 0.978 | 0.947
19 | NCI-H1944 | 0.309 | 0.293 | 0.325 | 0.382 | 0.326

Row | Cell Line | relative viability (first compound 0.5 µM) | relative viability (first compound 1.581 µM) | relative viability (first compound 15.81 µM) | relative viability (first compound 50 µM) | relative viability (first compound 5 µM)
20 | NCI-H1975 | 0.292 | 0.26 | 0.263 | 0.328 | 0.305
21 | NCI-H1993 | 0.824 | 0.961 | 0.81 | 0.789 | 0.625
22 | NCI-H2009 | 0.844 | 0.776 | 0.803 | 0.989 | 0.901
23 | NCI-H2023 | 0.332 | 0.23 | 0.224 | 0.249 | 0.23
24 | NCI-H2085 | 0.434 | 0.509 | 0.392 | 0.472 | 0.462
25 | NCI-H2087 | 0.891 | 0.879 | 0.919 | 0.721 | 0.798
26 | NCI-H2126 | 0.525 | 0.433 | 0.467 | 0.542 | 0.485
27 | NCI-H2170 | 0.327 | 0.294 | 0.284 | 0.333 | 0.282
28 | NCI-H2228 | 0.403 | 0.375 | 0.412 | 0.398 | 0.339
29 | NCI-H2347 | 0.511 | 0.534 | 0.6 | 0.637 | 0.573
30 | NCI-H2405 | 0.471 | 0.346 | 0.466 | 0.541 | 0.416
31 | NCI-H3122 | 0.658 | 0.574 | 0.58 | 0.576 | 0.619
32 | PC-3 [JPC-3] | 0.79 | 0.696 | 0.674 | 0.784 | 0.693
33 | PC-14 | 0.7 | 0.687 | 0.595 | 0.78 | 0.683
34 | RERF-LC-KJ | 0.43 | 0.518 | 0.488 | 0.603 | 0.55
35 | SK-LU-1 | 0.567 | 0.529 | 0.474 | 0.543 | 0.568
36 | SK-MES-1 | 0.4 | 0.373 | 0.342 | 0.359 | 0.321
37 | SW 1573 | 0.484 | 0.392 | 0.528 | 0.603 | 0.535
38 | UMC-11 | 0.843 | 0.542 | 0.844 | 1.03 | 0.752
